According to patent US9145392B2, “Imidazole amines as modulators of kinase activity” (Merck Patent GmbH, priority 2011, dated 2015):

Key:
[1] = molecular target: P70S6K (T412E mutant) (Homo sapiens (Human), UniProt P23443, T412E); test: P70S6K enzyme assay; assay type: biochemical; conditions: read-out: IC50 p70S6K
Summary of the method: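 Phosphorylated product and substrate peptide separated by microfluidic capillary electrophoresis (Caliper LabChip 3000), product peaks resolving before substrate.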

[2] = molecular target: His-AKT (Full Length) (Homo sapiens (Human), UniProt P31749); test: AKT enzyme assay; assay type: biochemical; conditions: read-out: IC50 AKT
Sequence of His-AKT (Full Length) (P31749 whole entry): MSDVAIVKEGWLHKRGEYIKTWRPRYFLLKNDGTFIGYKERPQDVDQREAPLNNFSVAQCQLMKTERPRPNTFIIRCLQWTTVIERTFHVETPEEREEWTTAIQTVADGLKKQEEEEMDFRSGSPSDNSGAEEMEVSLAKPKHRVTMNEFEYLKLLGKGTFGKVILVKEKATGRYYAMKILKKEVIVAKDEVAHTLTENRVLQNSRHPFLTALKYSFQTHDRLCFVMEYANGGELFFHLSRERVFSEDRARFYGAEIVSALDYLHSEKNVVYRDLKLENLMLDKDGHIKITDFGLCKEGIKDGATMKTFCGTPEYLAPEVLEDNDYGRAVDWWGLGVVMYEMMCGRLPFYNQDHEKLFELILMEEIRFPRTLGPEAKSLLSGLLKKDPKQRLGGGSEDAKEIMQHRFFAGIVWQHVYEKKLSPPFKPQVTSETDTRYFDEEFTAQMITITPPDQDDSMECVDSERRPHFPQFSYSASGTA
Protocol: A TTP Mosquito liquid handling instrument is used to place 125n1 of the appropriate concentration of inhibitor in 100% DMSO (for a dose response curve calculation) into each well of a 384-well plate.
The reaction is incubated for 90 min at 25 C, and then stopped by the addition of 70 μl of Stop buffer (100 mM HEPES pH 7.5, 0.015% Brij-35, 10 mM EDTA (Sigma, E7889)).
The plate is read on a Caliper LC 3000 in an Off-Chip mobility shift assay format, using the following parameters for a 12-sipper chip: screening pressure −2.3 psi, upstream voltage −500, and downstream voltage −3000. These conditions cause unphosphorylated substrate and phosphorylated product peptide to resolve as separate peaks allowing direct measurement of percentage of conversion of substrate to product. The percent conversion can be plotted against concentration of inhibitor to produce a sigmoidal dose response curve, from which an IC50 can be calculated.

Sequence of P70S6K (T412E mutant) (P23443 whole entry T412E): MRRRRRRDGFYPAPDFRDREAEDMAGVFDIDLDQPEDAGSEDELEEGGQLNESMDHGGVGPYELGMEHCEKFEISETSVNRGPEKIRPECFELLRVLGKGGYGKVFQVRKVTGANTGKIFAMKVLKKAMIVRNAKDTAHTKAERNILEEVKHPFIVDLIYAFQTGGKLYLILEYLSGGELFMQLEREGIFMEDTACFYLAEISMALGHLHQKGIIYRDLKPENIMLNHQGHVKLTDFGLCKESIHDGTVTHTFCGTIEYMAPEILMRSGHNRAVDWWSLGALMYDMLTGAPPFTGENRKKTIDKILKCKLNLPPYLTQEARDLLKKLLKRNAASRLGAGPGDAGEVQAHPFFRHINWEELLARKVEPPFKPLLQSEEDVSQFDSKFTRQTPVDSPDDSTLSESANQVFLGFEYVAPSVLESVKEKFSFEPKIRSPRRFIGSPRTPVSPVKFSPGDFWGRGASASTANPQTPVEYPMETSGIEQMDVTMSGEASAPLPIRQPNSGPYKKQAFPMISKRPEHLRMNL

Row | Compound | IC50 [1] | IC50 [2]
1 | NCCn1cc(-c2ccc(F)c(C(F)(F)F)c2)nc1C1CCN(c2ncnc(N)c2C(N)=O)CC1 [Compound 159, 4-amino-6-(4-(1-(2-aminoethyl)-4-(4-fluoro-3-(trifluoromethyl)phenyl)-1H-imidazol-2-yl)piperidin-1-yl)pyrimidine-5-carboxamide] | 1.5 nM | 15 nM
2 | Cc1ccc(-c2c(N)ncnc2N2CCC(c3nc(-c4ccc(F)c(C(F)(F)F)c4)cn3C)CC2)cc1 [Compound 13, 6-{4-[4-(4-Fluoro-3-trifluoromethyl-phenyl)-1-methyl-1H-imidazol-2-yl]-piperidin-1-yl}-5-p-tolyl-pyrimidin-4-ylamine] | 7.3 nM | 8300 nM
3 | Nc1ncnc(N2CCC(c3nc(-c4ccc(F)c(C(F)(F)F)c4)cn3CCN3CCC3)CC2)c1Cl [Compound 218] | 0.6 nM | 1 nM
4 | COCCN(C)CCn1cc(-c2ccc(F)c(C(F)(F)F)c2)nc1C1CCN(c2ncnc(N)c2C(N)=O)CC1 [Compound 366, 4-Amino-6-[4-(4-(4-fluoro-3-trifluoromethyl-phenyl)-1-{2-[(2-methoxy-ethyl)-methyl-amino]-ethyl}-1H-imidazol-2-yl)-piperidin-1-yl]-pyrimidine-5-carboxylic acid amide] | 9.2 nM | 440 nM
5 | Nc1ncnc(N2CCC(c3nc(-c4ccc(F)c(C(F)(F)F)c4)cn3CC3CNC3)CC2)c1Cl [Compound 148, 6-(4-(1-(azetidin-3-ylmethyl)-4-(4-fluoro-3-(trifluoromethyl)phenyl)-1H-imidazol-2-yl)piperidin-1-yl)-5-chloropyrimidin-4-amine] | 4.8 nM | 16.5 nM
6 | Nc1ncnc(N2CCC(c3nc(-c4cccc(C(F)(F)F)c4)cn3CCN3CCCC3)CC2)c1C1CCC1 [Compound 261] | 6.3 nM | 8.1 nM
7 | Nc1ncnc(N2CCC(c3nc(-c4ccc(F)c(C(F)(F)F)c4)cn3C[C@@H]3CCN3)CC2)c1Cl [Compound 149, (S)-6-(4-(1-(azetidin-2-ylmethyl)-4-(4-fluoro-3-(trifluoromethyl)phenyl)-1H-imidazol-2-yl)piperidin-1-yl)-5-chloropyrimidin-4-amine] | 4.8 nM | 38 nM
8 | CCc1c(N)ncnc1N1CCC(c2nc(-c3ccc(F)cc3)cn2CCN2CC3(COC3)C2)CC1 [Compound 197, 5-Ethyl-6-(4-{4-(4-fluoro-phenyl)-1-[2-(2-oxa-6-aza-spiro[3.3]hept-6-yl)-ethyl]-1H-imidazol-2-yl}-piperidin-1-yl)-pyrimidin-4-ylamine] | 6.3 nM | 130 nM
9 | Nc1ncnc(N2CCC(c3nc(-c4ccc(F)c(C(F)(F)F)c4)cn3CCN3CCC3)CC2)c1[N+](=O)[O-] [Compound 283] | 1.4 nM | 2.7 nM
10 | N#Cc1c(N)ncnc1N1CCC(c2nc(-c3ccc(F)c(C(F)(F)F)c3)cn2CC2CCCN2)CC1 (stereo not shown) [Compound 147, 4-amino-6-(4-(4-(4-fluoro-3-(trifluoromethyl)phenyl)-1-(pyrrolidin-2-ylmethyl)-1H-imidazol-2-yl)piperidin-1-yl)pyrimidine-5-carbonitrile] | 1.8 nM | 2.9 nM
11 | CNc1ncnc(N2CCC(c3nc(-c4ccnc(C(F)(F)F)c4)cn3CCN3CCC3)CC2)c1Cl [Compound 192, 6-(4-(1-(2-(azetidin-1-yl)ethyl)-4-(2-(trifluoromethyl)pyridin-4-yl)-1H-imidazol-2-yl)piperidin-1-yl)-5-chloro-N-methylpyrimidin-4-amine] | 2700 nM | 7200 nM
12 | Nc1ncnc(N2CCC(c3nc(-c4ccc(F)c(C(F)(F)F)c4)cn3CCN3CCCC3)CC2)c1C(=O)O [Compound 286] | 135 nM | 730 nM
13 | C=Cc1c(N)ncnc1N1CCC(c2nc(-c3ccc(F)c(C(F)(F)F)c3)cn2CC2CNC2)CC1 [Compound 183, 6-(4-(1-(azetidin-3-ylmethyl)-4-(4-fluoro-3-(trifluoromethyl)phenyl)-1H-imidazol-2-yl)piperidin-1-yl)-5-vinylpyrimidin-4-amine] | 12 nM | 74 nM
14 | Cc1c(N)ncnc1N1CCC(c2nc(-c3ccc(F)c(C(F)(F)F)c3)cn2CCN2CCCC2)CC1 [Compound 215] | 6.1 nM | 10 nM
15 | CCOc1c(N)ncnc1N1CCC(c2nc(-c3ccc(F)c(C(F)(F)F)c3)cn2CCN(C)C)CC1 [Compound 291] | 2.6 nM | 8 nM
16 | CCN(CCn1cc(-c2ccc(F)c(C)c2)nc1C1CCN(c2ncnc(N)c2OC(C)C)CC1)C(C)C [Compound 302] | 12 nM | 6.3 nM
17 | Cc1ccc(-c2cn(CCN3CCC3)c(C3CCN(c4ncnc(N)c4C#N)CC3)n2)cc1C(F)(F)F [Compound 316] | 0.8 nM | 24 nM
18 | Nc1cc(N2CCC(c3nc(-c4ccc(F)c(C(F)(F)F)c4)cn3CCN3CCCCC3)CC2)ncn1 [Compound 66] | 110 nM | 410 nM

Row | Compound | IC50 [1] | IC50 [2]
19 | Cc1cc(-c2cn(CC3CNC3)c(C3CCC(c4ncnc(N)c4C(C)C)CC3)n2)ccc1F (stereo not shown) [Compound 194, 6-(4-(1-(azetidin-3-ylmethyl)-4-(4-fluoro-3-methylphenyl)-1H-imidazol-2-yl)cyclohexyl)-5-isopropylpyrimidin-4-amine] | 3.4 nM | 16 nM
20 | Cc1cc(-c2cn(CCN3CCC3)c(C3CCN(c4ncnc(N)c4C(N)=O)CC3)n2)ccc1F [Compound 124, 4-amino-6-(4-(1-(2-(azetidin-1-yl)ethyl)-4-(4-fluoro-3-methylphenyl)-1H-imidazol-2-yl)piperidin-1-yl)pyrimidine-5-carboxamide] | 2 nM | 14 nM
21 | Cn1cc(-c2ccc(F)c(C(F)(F)F)c2)nc1C1CCN(c2ncncc2Br)CC1 [Compound 41, 5-Bromo-4-{4-[4-(4-fluoro-3-trifluoromethyl-phenyl)-1-methyl-1H-imidazol-2-yl]-piperidin-1-yl}-pyrimidine] | 3 nM | 1400 nM
22 | NC(=O)c1c(N)ncnc1N1CCC(c2nc(-c3ccc(F)c(OC(F)F)c3)cn2CCN2CCC2)CC1 [Compound 338] | 2 nM | 29 nM
23 | CC(C)NCCn1cc(-c2ccc(F)c(C(F)(F)F)c2)nc1C1CCN(c2ncnc(N)c2C(N)=O)CC1 [Compound 370, 4-Amino-6-{4-[4-(4-fluoro-3-trifluoromethyl-phenyl)-1-(2-isopropylamino-ethyl)-1H-imidazol-2-yl]-piperidin-1-yl}-pyrimidine-5-carboxylic acid amide] | 0.9 nM | 2.5 nM
24 | Cc1cc(-c2cn(CCN(C)C)c(C3CCN(c4ncnc(N)c4C#N)CC3)n2)ccc1F [Compound 325] | 0.5 nM | 0.9 nM
25 | CCc1c(N)ncnc1N1CCC(c2nc(-c3ccc(F)c(F)c3)cn2CCN2CCC3(COC3)C2)CC1 [Compound 202, 6-(4-{4-(3,4-Difluoro-phenyl)-1-[2-(2-oxa-6-aza-spiro[3.4]oct-6-yl)-ethyl]-1H-imidazol-2-yl}-piperidin-1-yl)-5-ethyl-pyrimidin-4-ylamine] | 9 nM | 89 nM
26 | Nc1ncnc(N2CCC(c3nc(-c4ccc(F)c(C(F)(F)F)c4)cn3CCN3CCCC3)CC2)c1Cl [Compound 209] | 3.1 nM | 2.2 nM
27 | Nc1ncnc(N2CCC(c3nc(-c4ccc(F)c(C(F)(F)F)c4)cn3CCN3CCCC3)CC2)c1F [Compound 211] | 23 nM | 23 nM
28 | CCc1c(N)ncnc1N1CCC(c2nc(-c3ccc(F)c(C(F)(F)F)c3)cn2CCN2CC(C)C2)CC1 [Compound 93, 5-ethyl-6-(4-(4-(4-fluoro-3-(trifluoromethyl)phenyl)-1-(2-(3-methylazetidin-1-yl)ethyl)-1H-imidazol-2-yl)piperidin-1-yl)pyrimidin-4-amine] | 3 nM | 7.7 nM
29 | Nc1cc(N2CCC(c3nc(-c4ccc(F)c(F)c4)cn3CCN3CCCC3)CC2)ncn1 [Compound 243] | 18 nM | 63 nM
30 | CNCCn1cc(-c2ccnc(C(F)(F)F)c2)nc1C1CCN(c2ncnc(N)c2C#N)CC1 [Compound 169, 4-amino-6-(4-(1-(2-(methylamino)ethyl)-4-(2-(trifluoromethyl)pyridin-4-yl)-1H-imidazol-2-yl)piperidin-1-yl)pyrimidine-5-carbonitrile] | 1.3 nM | 1.7 nM
31 | CCN(CC)CCn1cc(-c2ccc(F)c(C)c2)nc1C1CCN(c2ncnc(N)c2OC(C)C)CC1 [Compound 304] | 4.6 nM | 2.6 nM
32 | CCc1c(N)ncnc1N1CCC(c2nc(-c3cccc(OC(F)(F)F)c3)cn2CCN2CCC2)CC1 [Compound 100, 6-(4-(1-(2-(azetidin-1-yl)ethyl)-4-(3-(trifluoromethoxy)phenyl)-1H-imidazol-2-yl)piperidin-1-yl)-5-ethylpyrimidin-4-amine] | 2.3 nM | 16 nM
33 | Nc1ncnc(N2CCC(c3nc(-c4ccc(F)c(C(F)(F)F)c4)cn3CCN3CCC3)CC2)c1-c1ccc(F)cc1 [Compound 219] | 2.4 nM | 2.3 nM
34 | CCc1c(N)ncnc1N1CCC(c2nc(-c3ccc(C(F)(F)F)c(F)c3)cn2CCN2CCCC2)CC1 [Compound 234] | 13 nM | 470 nM
35 | NC(=O)c1c(N)ncnc1N1CCC(c2nc(-c3ccc(F)c(F)c3)cn2CCN2CCCC2)CC1 [Compound 329] | 14 nM | 120 nM
